Biological target: T1, XCP1-His (Arabidopsis thaliana, UniProt O65493)
T1 construct: C-terminal 6xHis tag kept; from Arabidopsis cDNA; transiently expressed in Nicotiana benthamiana leaves with P19, Ni-NTA purified
Test: inhibition of Ac-CNYD-AMC cleavage, […] h preincubation, […] h incubation
Assay type: biochemical
Details: 1 ug enzyme, 25 uM Ac-CNYD-AMC; covalent

T1 sequence (O65493 137-355): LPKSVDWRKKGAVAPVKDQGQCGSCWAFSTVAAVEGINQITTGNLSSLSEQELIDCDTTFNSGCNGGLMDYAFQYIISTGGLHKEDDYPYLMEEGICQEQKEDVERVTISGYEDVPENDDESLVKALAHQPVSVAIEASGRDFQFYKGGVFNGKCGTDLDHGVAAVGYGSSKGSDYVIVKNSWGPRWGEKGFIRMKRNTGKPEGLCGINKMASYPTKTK

CC(C)C[C@H](NC(=O)[C@H]1O[C@@H]1C(=O)O)C(=O)NCCCCNC(=N)N [E-64]
inhibition of Ac-CNYD-AMC cleavage, 1 h preincubation, 10 h incubation: CNYDase activity of purified XCP1-His was enhanced by CaCl2 and inhibited by ZnCl2 and E-64
